Assay results published in patent publication US12358904B2, “Inhibitors of TYK2” (Atomwise Inc., priority 2023, dated 2025).

How the values were obtained:
TYK2-JH2 = target: T1, TYK2-JH2 (Homo sapiens, UniProt P29597); experiment: TYK2-JH2 HTRF binding assay (ligand efficiency); details: calculated from IC50 of the TYK-JH2 binding assay (Equation 1)
T1 construct: TYK JH2 enzyme mix (ChemPartnec CP20210818A-BV); purchased ChemPartner CP20210818A-BV
Procedure, shortened: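 His-tagged TYK2 JH2 (0.5 nM) preincubated 10 min at RT with compound (0.1–0.000005 μM) in 20 mM HEPES pH 7.5, 10 mM MgCl2, 0.01% Triton X-100, 1 mM DTT; then 35 nM tracer plus anti-6HIS Tb cryptate, 60 min RT. TR-FRET read (Ex340/Em495/520); IC50 converted to ligand efficiency.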

IL-12/pSTAT4 = experiment: IL-12 induced pSTAT4 assay in NK-92 cells; type: cell-based; details: Homo sapiens, NK92, IL-12 stimulation, read-out: Cellular potency (IL-12/pSTAT4)
Procedure, shortened: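 Overnight-starved NK-92 cells (20K/well) pre-incubated with compounds (1000 to 0.05 nM final) 30 min at 37 °C, then stimulated with IL-12 (10 ng/ml) for 30 min at 37 °C. Lysates assayed for pSTAT4 (Tyr693) by MSD electrochemiluminescence.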

IL-6/pSTAT3 = experiment: IL-6 induced pSTAT3 assay in TF-1 cells; type: cell-based; details: Homo sapiens, read-out: Cellular selectivity (IL-6/pSTAT3)
Method: The following example describes the IL-6 induced pSTAT3 assay used to determine the cellular selectivity (IL-6/pSTAT3) of the TYK2 inhibitors.
TF-1 (ATCC®, CRL-2003™) cells were cultured in RPMI 1640 Medium, with GlutaMAX™ Supplement, HEPES for Cell Culture (Life Technologies, 72400047), 10% Fetal Bovine Serum (Life Technologies, 26400044), 2 ng/mL human recombinant GM-CSF (Life Technologies, PHC2013), 1 mM Sodium pyruvate (Life Technologies, 11360039), 1% MEM NEAA (Life Technologies, 11140-035), 1% Penicillin/Streptomycin (Life Technologies, 15140-122).
TF-1 (70×10^6) cells were starved overnight in T01 50 flasks (Opti-MEM™ I Reduced Serum Medium, no phenol red (Life Technologies, 11058-021), 1 mM Na pyruvate (Life Technologies, 11360039), 1% MEM NEAA (Life Technologies, 11140-035), and 1% Penicillin/Streptomycin (Life Technologies, 15140-122)) then seeded into 96-well TPP plates (150 000 cell/well) and incubated with test compounds (Final Concentration [nM] 10000-0.05) for 30 minutes at 37° C. […] Stimulation was terminated by addition of lysis buffer (MSD K150SVD) and pSTAT3 detection was measured with Phospho-STAT3 (Tyr705) Kit MSD K150SVD)) according to manufacturer's instruction. Briefly, cell lysates were added to pre-blocked plates, sealed, and shake for 1 hour at room temperature. Plates were then washed and incubated with detection antibody for 1 hour at room temperature. After washing, Read Buffer was added, and plates were read on MSD instrument (Model 1300 MSD Quickplex SQ 120).

GM-CSF/pSTAT5 = experiment: GM-CSF induced pSTAT5 assay in CellSensor irf1-bla TF-1 cells; type: cell-based; details: GM-CSF 1 ng/mL; for IC50: Homo sapiens, read-out: Cellular selectivity (GM-CSF induced pSTAT5)
Method: The CellSensor irf1-bla TF-1 cell line (LifeTechnologies, K1657) was cultured in RPMI 1640 Medium (Invitrogen 72400-047), 10% Fetal Bovine Serum (Invitrogen, 26400044), 1 mM Sodium pyruvate (Life Technologies, 11360039), 1% MEM NEAA (Life Technologies, 11140-035), 2 ng/ml of human recombinant GM-CSF (Fisher, PHC2015), 1% Penicillin/Streptomycin (Life Technologies, 15140-122) and 5 μg/ml of Blasticidin (ThermoFisher, A1113903).
The cell line was seeded in a T75 flask at 13×10^6 cells/50 mL in starvation medium (Opti-MEM™ I Reduced Serum Medium, no phenol red (Life Technologies, 11058-021), 1 mM Na pyruvate (Life Technologies, 11360039), 1% MEM NEAA (Life Technologies, 11140-035), and 1% Penicillin/Streptomycin (Life Technologies, 15140-122)) for 16 hours at 37° C. under 5% CO2 the day before the assay.
For the assay, CellSensor irf1-bla TF-1 cells were seeded at 30 000 cells/32 μL (starvation medium)/well in a 384-well plate.
Compounds were added on the cells in 4 μL (starvation medium)/well at 10× the final concentration. They were incubated for 30 minutes at 37° C.
Human recombinant carrier-free GM-CSF (ThermoFisher, ref PHC2015) was added to the wells in 4 μL (starvation medium)/well at 10×. The final concentration was 1 ng/mL. Control wells without GM-CSF treatment were added. Plates were incubated for 5 hours at 37° C.
6× LiveBlazer-FRET substrate (Invitrogen, K1085) was added to the wells at 8 μL/well. The substrate was prepared shortly before use by mixing 6 μL of solution A and 60 μL of solution B to 934 μL of solution C. Plates were incubated for 2.5 hours at room temperature in the dark. The plates were read on an Envision (Perkin Elmer) with an excitation at a wavelength of 409 nm and two wavelengths for the emission 520 nm and 450 nm. The ratio between the […] emission was used to calculate the IC50s.
The IC50 for the inhibition of pSTAT5 was calculated with the Xlfit software using the 4 Parameter Logistic Model or Sigmoidal Dose-Response Model (model 205).

[1] = Brain exposure pharmacokinetic study in rats; type: in vivo, rat; details: male Sprague Dawley rats, oral gavage 10 mg/kg, plasma, CSF
Method: The brain exposure of exemplary compounds, e.g., 1, 2, and 4 were evaluated in male Sprague Dawley rats after oral gavage administration at 10 mg/kg. The formulation was 5% DMSO+10% PEG400 in saline. Rats were fasted overnight with food returned 4 hours post-dose. CSF was collected by direct needle puncture into the cisterna magna.
For both rat and mouse studies, brain tissue was washed with 3 volumes of saline prior to homogenization. Brain tissue was homogenized with 3 volumes (v/w) of phosphate buffered saline. Plasma, brain homogenate, and CSF samples (rat only) were analyzed by LC-MS/MS and the concentration of test compound at each time point was determined by linear regression.
Pharmacokinetic parameters were calculated from the plasma, brain, and CSF concentrations by non-compartmental modeling using WinNonlin 8.2.

T1 sequence (P29597 589-875 limits assumed): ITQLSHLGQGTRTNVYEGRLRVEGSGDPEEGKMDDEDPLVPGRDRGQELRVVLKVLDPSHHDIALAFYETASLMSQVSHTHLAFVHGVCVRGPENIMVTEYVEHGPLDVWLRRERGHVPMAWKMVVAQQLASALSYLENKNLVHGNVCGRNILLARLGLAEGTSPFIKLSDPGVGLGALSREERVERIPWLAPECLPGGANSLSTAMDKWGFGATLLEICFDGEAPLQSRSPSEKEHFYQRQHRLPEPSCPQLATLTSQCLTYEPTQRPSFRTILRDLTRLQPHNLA

SMILES	Ligand Efficiency (TYK2-JH2)	IC50 (IL-12/pSTAT4) [µM]	IC50 (IL-6/pSTAT3) [µM]	IC50 (GM-CSF/pSTAT5) [µM]	Brain Kpu, u [1]	Cellular selectivity (GM-CSF induced pSTAT5) (GM-CSF/pSTAT5)
CC(C)[C@@H](c1ccc(Nc2cc(Nc3ncccc3S(C)(=O)=O)ncn2)nc1)N1CC2(COC2)C1 [Compound 13, (S)—N^4-(5-(2-methyl-1-(2-oxa-6-azaspiro[3.3]heptan-6-yl)propyl)pyridine-2-yl)-N^6-(3-(methylsulfonyl)93yridine-2-yl)pyrimidine-4,6-diamine]	†† (††: 0.37-0.39)	< 0.1	4 to 10	> 10	–	–
Cc1cccc(Nc2cc(Nc3ccccc3NS(C)(=O)=O)ncn2)n1 [Compound 53, N-(2-(6-(6-methylpyridin-2-ylamino)pyrimidin-4-ylamino)phenyl) methanesulfonamide]	††† (†††: >0.39)	0.1 to 1	< 4	4 to 10	–	–
Cc1nc(Nc2cc(Nc3ncccc3S(C)(=O)=O)ncn2)ccc1[C@H](C)N1CC2(COC2)C1 [Compound 12, N^4-(5-(1-(2-oxa-6-azaspiro[3.3]heptan-6-yl)ethyl)-6-methylpyridin-2-yl)-N^6-(3-(methylsulfonyl)92yridine-2-yl)pyrimidine-4,6-diamine]	††† (†††: >0.39)	< 0.1	< 4	< 4	–	–
Cc1cncc(Nc2cc(Nc3ccccc3C(N)=O)ncn2)n1 [Compound 49, 2-(6-(6-methylpyrazin-2-ylamino)pyrimidin-4-ylamino)benzamide]	††† (†††: >0.39)	0.1 to 1	< 4	> 10	–	–
C[C@@H](c1ccc(Nc2cc(Nc3ncccc3S(C)(=O)=O)ncn2)nc1)N1CC2(COC2)C1 [Compound 1, (S)—N^4-(5-(1-(2-oxa-6-azaspiro[3.3]heptan-6-yl)ethyl)73yridine-2-yl)-N^6-(3-(methylsulfonyl)73yridine-2-yl)pyrimidine-4,6-diamine]	††† (†††: >0.39)	< 0.1	> 10	4 to 10	†† (†† 0.1-0.2u)	–
C[C@H](c1ccc(Nc2cc(Nc3ncccc3S(C)(=O)=O)ncn2)nc1)N1CC2(COC2)C1 [Compound 17, I—N^4-(5-(1-(2-oxa-6-azaspiro[3.3]heptan-6-yl)ethyl) 73yridine-2-yl)-N^6-(3-(methylsulfonyl)73yridine-2-yl)pyrimidine-4,6-diamine]	†† (††: 0.37-0.39)	< 0.1	> 10	–	–	††††
CS(=O)(=O)c1cccnc1Nc1cc(Nc2ccc3c(n2)CCC[C@@H]3N2CC3(COC3)C2)ncn1 [Compound 5, I-N^4-(5-(2-oxa-6-azaspiro[3.3]heptan-6-yl)-5,6,7,8-tetrahydroquinolin-2-yl)-N^6-(3-(methylsulfonyl)81yridine-2-yl)pyrimidine-4,6-diamine]	†† (††: 0.37-0.39)	< 0.1	4 to 10	> 10	–	–
Cc1ccnc(Nc2cc(Nc3ccccc3C(N)=O)ncn2)c1 [Compound 45, 2-((6-((4-methylpyridin-2-yl)amino)pyrimidin-4-yl)amino) benzamide]	††† (†††: >0.39)	< 0.1	< 4	< 4	–	–
CC(NC1CC(F)(F)C1)c1ccc(Nc2cc(Nc3ncccc3S(C)(=O)=O)ncn2)nc1 (stereo not shown) [Compound 35, N^4-(5-(1-(3,3-difluorocyclobutylamino)ethyl)122yridine-2-yl)-N^6-(3-(methylsulfonyl)122yridine-2-yl)pyrimidine-4,6-diamine]	††† (†††: >0.39)	< 0.1	> 10	> 10	–	–
CS(=O)(=O)c1ccccc1Nc1cc(Nc2ccc3c(n2)CCCC3N2CC3(CCOCC3)C2)ncn1 (stereo not shown) [Compound 27, N^4-(5-(7-oxa-2-azaspiro[3.5]nonan-2-yl)-5,6,7,8-tetrahydroquinolin-2-yl)-N^6-(2-(methylsulfonyl)phenyl)pyrimidine-4,6-diamine]	† (†: <0.37)	< 0.1	> 10	> 10	–	–
CC(c1ccc(Nc2cc(Nc3ncccc3S(C)(=O)=O)ncn2)nc1)N1CC(F)C1 (stereo not shown) [Compound 22, N^4-(5-(1-(3-fluoroazetidin-1-yl)ethyl)102yridine-2-yl)-N^6-(3-(methylsulfonyl)102yridine-2-yl)pyrimidine-4,6-diamine]	††† (†††: >0.39)	< 0.1	4 to 10	> 10	–	–
CC(NC1CCOC1)c1ccc(Nc2cc(Nc3ccccc3S(C)(=O)=O)ncn2)nc1 (stereo not shown) [Compound 26, N^4-(2-(methylsulfonyl)phenyl)-N^6-(5-(1-(tetrahydrofuran-3-ylamino)ethyl)106yridine-2-yl)pyrimidine-4,6-diamine]	†† (††: 0.37-0.39)	< 0.1	> 10	> 10	–	–
Cc1cccc(Nc2cc(Nc3ccccc3C(N)=O)ncn2)n1 [Compound 46]	††† (†††: >0.39)	< 0.1	< 4	< 4	–	–
CS(=O)(=O)c1cccnc1Nc1cc(Nc2cccc(C(F)(F)F)n2)ncn1 [Compound 19, N^4-(3-(methylsulfonyl)100yridine-2-yl)-N^6-(6-(trifluoromethyl) 100yridine-2-yl)pyrimidine-4,6-diamine]	††† (†††: >0.39)	< 0.1	> 10	> 10	–	–
Cc1cc(Nc2cc(Nc3ncccc3S(C)(=O)=O)ncn2)ncc1NC1(C)COC1 [Compound 23, N^4-(4-methyl-5-((3-methyloxetan-3-yl)amino)103yridine-2-yl)-N^6-(3-(methylsulfonyl)103yridine-2-yl)pyrimidine-4,6-diamine]	††† (†††: >0.39)	< 0.1	> 10	> 10	–	–
